Measured values taken from PMC10066365, “Nemacol is a small molecule inhibitor of C. elegans vesicular acetylcholine transporter with anthelmintic potential” (Nature Communications, 2023).
“And” between values parts separate entries of the source, which are not always exact repeats. Identical values can stand only once. Like-named read-outs stand apart in the source and are kept apart here.

What was measured:
[1] = tested on: C. elegans; experiment: C. elegans motor phenotype scoring on solid media (Punc/jerky-unc, coiled, paralyzed), wild-type young adults; format: in vivo, Caenorhabditis elegans; details: for atypical locomotion (number of animals) / coiled (number of animals) / no phene (number of animals) / paralyzed (number of animals): young adults, 20 animals per trial; for EC50: Caenorhabditis elegans, read-out: C. elegans - motor disruption EC50
[2] = tested on: Dirofilaria immitis L3/L4; experiment: Dirofilaria immitis L3/L4 motility assay (DiroImager, 72 h); details: Dirofilaria immitis L4
[3] = tested on: Dirofilaria immitis microfilariae; experiment: Dirofilaria immitis microfilariae immobility assay (DiroImager, 72 h); details: Dirofilaria immitis microfilariae
Method: We conducted experiments with the Missouri isolate of Dirofilaria immitis in two labs. In the first set of experiments, shown as part of Fig. 3c, D. immitis microfilariae and larval stage 3 (L3) worms were assayed in the laboratories of Bayer Animal Health GmbH (Monheim, Germany). For microfilariae immobility assays, approximately 250 freshly purified microfilariae were cultured in single wells of a 96-well microtiter plate containing supplemented RPMI 1640 medium[68],[69]. […] Microfilariae exposed to medium substituted with 1% DMSO were used as negative controls. Motility of microfilariae was evaluated after 72 h of drug exposure using an image-based approach—DiroImager, developed by Bayer Technology Services. As described in detail in refs. [68],[69], the DiroImager is an automated high-throughput platform that allows for high-resolution optical imaging of an entire 96-well microtiter plate.

[4] = tested on: Pristionchus pacificus; experiment: Pristionchus pacificus motor disruption dose-response on solid media, 1 h; details: for mean % any phene (coiled, jerky-Unc or paralyzed): Pristionchus pacificus young adults, mean of three biological replicates; for EC50: Pristionchus pacificus, 1 h, read-out: P. pacificus motor disruption EC50
[5] = 3.75uM, one hour, mean of three biological replicates
[6] = 3.75uM, one hour, single replicate counts
[7] = 15uM, one hour, mean of three biological replicates
[8] = 15uM, one hour, single replicate counts
[9] = 60uM, one hour, mean of three biological replicates
[10] = 60uM, one hour, single replicate counts
[11] = conc 3.75, observed at one hour
[12] = any motor phenotype after 1 h on solid media, ± 95% CI
[13] = 3.75uM, one hour, mean of three biological replicates, third c14 line of each analog
[14] = 15uM, one hour, mean of three biological replicates, second c14 line of each analog
[15] = 60uM, one hour, mean of three biological replicates, first c14 line of each analog
[16] = 3.75uM, one hour, single technical replicate
[17] = 15uM, one hour, single technical replicate
[18] = 60uM, one hour, single technical replicate

| Compound | any phene, mean % fraction of young adults exhibiting any phenotype (coiled, jerky-Unc or paralyzed) [1, 5] [%] | atypical locomotion (number of animals) [1, 6] | coiled (number of animals) [1, 6] | no phene (number of animals) [1, 6] | paralyzed (number of animals) [1, 6] | any phene, mean % fraction of young adults exhibiting any phenotype (coiled, jerky-Unc or paralyzed) [1, 7] [%] | atypical locomotion (number of animals) [1, 8] | coiled (number of animals) [1, 8] | no phene (number of animals) [1, 8] | paralyzed (number of animals) [1, 8] | any phene, mean % fraction of young adults exhibiting any phenotype (coiled, jerky-Unc or paralyzed) [1, 9] [%] | % effect (motility), DIROIM L4 ([2]; 2 µM) [%] | % effect (motility), DIROIM L4 ([2]; 10 µM) [%] | % effect (motility), DIROIM L4 ([2]; 50 µM) [%] | % effect (motility), DIROIM MF ([3]; 0.016 µM) [%] | % effect (motility), DIROIM MF ([3]; 0.08 µM) [%] | % effect (motility), DIROIM MF ([3]; 0.4 µM) [%] | % effect (motility), DIROIM MF ([3]; 2 µM) [%] | % effect (motility), DIROIM MF ([3]; 10 µM) [%] | EC50 [1, 12] [µM] | also measured |
| --- | --- | --- | --- | --- | --- | --- | --- | --- | --- | --- | --- | --- | --- | --- | --- | --- | --- | --- | --- | --- | --- |
| O=[N+]([O-])c1ccc(N2CCN(Cc3ccccc3)CC2)cc1 [Nemacol-6] | 0 | 0 | 0 | 20 | 0 | 7.5 | 1 and 0 and 2 and 5 | 0 | 19 and 20 and 18 and 15 | 0 | 44.1667 | 5 | 6 | 20 | 0 | 0 | 0 | 0 | 0 | – | atypical locomotion (number of animals) [1, 10]: 5 and 3 and 4 and 19 and 13; coiled (number of animals) [1, 10]: 1 and 0 and 3; no phene (number of animals) [1, 10]: 14 and 17 and 12 and 16 and 1 and 7; paralyzed (number of animals) [1, 10]: 0; EC50 ([1]; 1 h): > 60 µM; mean % any phene (coiled, jerky-Unc or paralyzed) [4, 11]: 0%; mean % any phene (coiled, jerky-Unc or paralyzed) ([4]; conc 15, observed at one hour): 1.667%; mean % any phene (coiled, jerky-Unc or paralyzed) ([4]; conc 60, observed at one hour): 23.3333%; EC50 [4]: > 60 µM |
| CN1CCN(c2ccc([N+](=O)[O-])cc2)CC1 [Nemacol-7] | 0 | 0 | 0 | 20 | 0 | 3.333 | 0 and 1 and 2 | 0 | 20 and 19 and 18 | 0 | 14.1667 | 5 | 5 | 10 | 0 | 0 | 0 | 0 | 0 | – | atypical locomotion (number of animals) [1, 10]: 1 and 2 and 0 and 4 and 8; coiled (number of animals) [1, 10]: 0; no phene (number of animals) [1, 10]: 19 and 18 and 20 and 16 and 12; paralyzed (number of animals) [1, 10]: 0; EC50 ([1]; 1 h): > 60 µM; mean % any phene (coiled, jerky-Unc or paralyzed) [4, 11]: 1.667%; mean % any phene (coiled, jerky-Unc or paralyzed) ([4]; conc 15, observed at one hour): 5%; mean % any phene (coiled, jerky-Unc or paralyzed) ([4]; conc 60, observed at one hour): 41.6667%; EC50 [4]: > 60 µM |
| CCN1CCN(c2ccc([N+](=O)[O-])cc2)CC1 [Nemacol-8] | 0 | 0 | 0 | 20 | 0 | 0 | 0 | 0 | 20 | 0 | 28.5965 | 0 | 5 | 5 | 0 | 0 | 0 | 0 | 0 | – | atypical locomotion (number of animals) [1, 10]: 4 and 3 and 1 and 5 and 8; coiled (number of animals) [1, 10]: 0 and 2 and 1; no phene (number of animals) [1, 10]: 16 and 17 and 13 and 15 and 11; paralyzed (number of animals) [1, 10]: 0 and 3 and 2 and 1; EC50 ([1]; 1 h): > 60 µM; mean % any phene (coiled, jerky-Unc or paralyzed) [4, 11]: 0%; mean % any phene (coiled, jerky-Unc or paralyzed) ([4]; conc 15, observed at one hour): 48.3333%; mean % any phene (coiled, jerky-Unc or paralyzed) ([4]; conc 60, observed at one hour): 81.6667%; EC50 [4]: 17.8 ± 3.7 µM |
| Fc1ccc(N2CCN(CC3CCCCC3)CC2)cc1 [Nemacol-9] | 21.6667 | 0 and 14 and 12 | 0 | 20 and 6 and 8 | 0 | 44.1667 | 5 and 3 and 1 and 2 and 16 and 11 | 2 and 0 and 4 and 7 | 13 and 17 and 19 and 18 and 0 | 0 and 2 | 95 | 5 | 5 | 10 | 0 | 0 | 0 | 0 | 0 | 14.4 ± 13.3 | atypical locomotion (number of animals) [1, 10]: 11 and 13 and 12 and 14 and 3 and 1; coiled (number of animals) [1, 10]: 6 and 5 and 4 and 8 and 13; no phene (number of animals) [1, 10]: 0 and 4 and 2; paralyzed (number of animals) [1, 10]: 3 and 2 and 0 and 9 and 6; mean % any phene (coiled, jerky-Unc or paralyzed) [4, 11]: 1.667%; mean % any phene (coiled, jerky-Unc or paralyzed) ([4]; conc 15, observed at one hour): 10%; mean % any phene (coiled, jerky-Unc or paralyzed) ([4]; conc 60, observed at one hour): 100%; EC50 [4]: 20 µM |
| c1cc(N2CCN(CC3CCCCC3)CC2)ccn1 [Nemacol-22, 1-(cyclohexylmethyl)−4-(pyridin-4-yl)piperazine] | – | – | – | – | – | – | – | – | – | – | – | 0 | 0 | 10 | 0 | 0 | 0 | 0 | 0 | > 60 | any phene (mean % fraction of young adults exhibiting any phenotype: coiled, jerky-Unc or paralyzed) [1, 13]: 0%; any phene (mean % fraction of young adults exhibiting any phenotype: coiled, jerky-Unc or paralyzed) [1, 14]: 10.8333%; any phene (mean % fraction of young adults exhibiting any phenotype: coiled, jerky-Unc or paralyzed) [1, 15]: 24.1667% |
| N#Cc1ccc(N2CCN(CC3CCCCC3)CC2)cc1 [Nemacol-24, 4-(4-(cyclohexylmethyl)piperazin-1-yl)benzonitrile] | – | – | – | – | – | – | – | – | – | – | – | – | 25 | 45 | 0 | 0 | 0 | 0 | 0 | 16.3 ± 10.5 | any phene (mean % fraction of young adults exhibiting any phenotype: coiled, jerky-Unc or paralyzed) [1, 13]: 8.333%; any phene (mean % fraction of young adults exhibiting any phenotype: coiled, jerky-Unc or paralyzed) [1, 14]: 45.8333%; any phene (mean % fraction of young adults exhibiting any phenotype: coiled, jerky-Unc or paralyzed) [1, 15]: 91.6667% |
| O=[N+]([O-])c1ccc(N2CCN(CC3CC3)CC2)cc1 [Nemacol-28, 1-(cyclopropylmethyl)−4-(4-nitrophenyl)piperazine] | – | – | – | – | – | – | – | – | – | – | – | 5 | 5 | 15 | 0 | 0 | 0 | 0 | 0 | > 60 | any phene (mean % fraction of young adults exhibiting any phenotype: coiled, jerky-Unc or paralyzed) [1, 13]: 0%; any phene (mean % fraction of young adults exhibiting any phenotype: coiled, jerky-Unc or paralyzed) [1, 14]: 4.167%; any phene (mean % fraction of young adults exhibiting any phenotype: coiled, jerky-Unc or paralyzed) [1, 15]: 32.5% |
| Clc1ccc(N2CCN(C3CCCCCC3)CC2)cc1 [Nemacol-57] | – | – | – | – | – | – | – | – | – | – | – | – | 10 | 15 | 0 | 0 | 0 | 0 | 0 | 2.3 | atypical locomotion (number of animals) [1, 16]: 12 and 13 and 15; coiled (number of animals) [1, 16]: 3 and 1 and 2 and 7; no phene (number of animals) [1, 16]: 0 and 2 and 3; paralyzed (number of animals) [1, 16]: 5 and 4 and 1 and 0; any phene: mean % fraction of young adults exhibiting any phenotype (coiled, jerky-Unc or paralyzed) [1, 5]: 92.5%; atypical locomotion (number of animals) [1, 17]: 0 and 2 and 4 and 6; coiled (number of animals) [1, 17]: 17 and 15 and 14 and 10 and 11; no phene (number of animals) [1, 17]: 0; paralyzed (number of animals) [1, 17]: 3 and 4 and 0 and 6; atypical locomotion (number of animals) [1, 18]: 0 and 2 and 1; coiled (number of animals) [1, 18]: 14 and 13 and 12 and 18 and 11; no phene (number of animals) [1, 18]: 0; paralyzed (number of animals) [1, 18]: 6 and 5 and 7 and 2 and 8 |
